Measured values as given in paper PMC9781827, “Isolation and Identification of Anti-Inflammatory Peptide from Goose Blood Hydrolysate to Ameliorate LPS-Mediated Inflammation and Oxidative Stress in RAW264.7 Macrophages” (Molecules, 2022).

Legend:
iNOS = test: Western blot of iNOS in RAW264.7 macrophages; format: cell-based; conditions: LPS group vs CTRL group, p < 0.05
Description: (§1) RAW264.7 macrophages were washed with cold PBS and homogenized with two small magnetic beads (2 mm) and 10× volume of RIPA buffer containing 1% protease inhibitors for 60 s. Then the supernatant was collected after centrifuging at 12,000× g for 10 min at 4 °C, which was the total protein solution. The concentration of protein in the total protein solution was measured by BCA kits. The protein concentration of the supernatant was diluted to 2.0 mg/mL and mixed with an equal volume of buffer (0.25 mol/L Tris-HCl buffer, pH 6.8, containing 4% SDS and 20% glycerol with 20 mmol/L 2-mercaptoethanol). The stacking gel and separating gel were made of 5% (w/v) and 10% (w/v) polyacrylamide, respectively. Electrophoresis was carried out at 80 V until the dye front reached the bottom of the stacking gel, and the gel was run at 120 V until the dye front reached the bottom of the separating gel (165-8001, Bio-Rad Mini-PROTEAN Tetra Electrophoresis System). The PVDF membrane was covered on the gel and transferred membrane at 300 mA for 30 min. The membrane was moved into a decolorization shaker with 5% skim milk (0.5% TBST) and blocked for 1 h at room temperature. […] The film was scanned and archived, processed and decolorized by Photoshop, and the optical density value of the target band was analysed by ImageJ software processing system.

Keap-1, NrF2, HO-1 = test: Western blot of Keap-1, NrF2, HO-1 in RAW264.7 macrophages; format: cell-based; conditions: stimulation with LPS alone
Description: as §1

Q: What does the source list for lipopolysaccharide [LPS]?
A: protein expression level of iNOS (iNOS): higher; protein expression level of Keap-1 (Keap-1, NrF2, HO-1): significantly increased; protein expression levels of NrF2 and HO-1 (Keap-1, NrF2, HO-1): decreased
